The source of these data is patent US20240376074A1, “NAMPT INHIBITORS AND USES THEREOF” (Remedy Plan, Inc., priority 2021, published 2024).

SMILES strings stand for the structures.

The test addresses T1, NAMPT (Homo sapiens, UniProt P43490).
T1 construct: purchased Abcam ab221819
In words: NAMPT Activity Assay (Abcam #ab221819). The test is classed as biochemical. The note with it: purified NAMPT, percent inhibition from OD450 nm; compound concentration not given. How it is done:
The NAMPT Activity Assay (Abcam #ab221819) was performed following manufacturers two-step reaction protocol. Briefly, compounds were added to a clear 96-well plate using the HP D300e Digital Dispenser. Purified NAMPT was added to all wells except the No NAMPT controls. Reaction Mix #1 was added to each well and the plate was incubated at 30*C for 1 hr followed by the addition of Reaction Mix #2. Absorbance was measured at OD450 nm using a multimode plate reader. Readings were recorded for 5 minutes and percent inhibition was calculated using: (1-(OD450 nm compound/OD450nm no drug))*100.

T1 sequence (P43490 whole entry): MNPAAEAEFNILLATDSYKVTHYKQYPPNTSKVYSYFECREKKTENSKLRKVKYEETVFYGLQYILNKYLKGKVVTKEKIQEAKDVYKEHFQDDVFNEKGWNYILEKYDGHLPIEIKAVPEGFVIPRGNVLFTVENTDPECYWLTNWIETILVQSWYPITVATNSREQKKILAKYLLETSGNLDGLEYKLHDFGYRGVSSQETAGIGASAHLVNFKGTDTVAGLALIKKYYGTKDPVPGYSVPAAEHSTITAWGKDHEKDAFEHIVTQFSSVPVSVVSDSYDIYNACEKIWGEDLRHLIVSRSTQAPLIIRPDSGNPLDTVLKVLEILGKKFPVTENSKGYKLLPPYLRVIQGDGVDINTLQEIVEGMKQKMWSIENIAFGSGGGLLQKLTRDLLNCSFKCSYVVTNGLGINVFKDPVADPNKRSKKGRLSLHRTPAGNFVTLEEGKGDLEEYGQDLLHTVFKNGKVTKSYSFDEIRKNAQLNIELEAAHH

Turning to `CC(=O)N(CC1CC1)c1ccc(-c2ccc(C(=O)NCc3cccc(F)c3)cn2)cc1Cl` [I-T2341, 6-[4-[acetyl(cyclopropylmethyl)amino]-3-chloro-phenyl]-N-[(3-fluorophenyl)methyl]pyridine-3-carboxamide], the “NAMPT Inhibition Code*” value is given as “C (C = ≥66% inhibition)”.

`CC(=O)N(CC1CC1)c1ccc(-c2ccc(C(=O)NCCc3cccc(F)c3)cn2)cc1Cl` [I-T2342, 6-[4-[acetyl(cyclopropylmethyl)amino]-3-chloro-phenyl]-N-[2-(3-fluorophenyl)ethyl]pyridine-3-carboxamide]: the “NAMPT Inhibition Code*” value is listed as “C (C = ≥66% inhibition)”.

For `CC(=O)N(CC1CC1)c1ccc(-c2ccc(C(=O)NCC3CCCC34CC4)cn2)cc1Cl` (stereo not drawn) [I-T2343, 6-[4-[acetyl(cyclopropylmethyl)amino]-3-chloro-phenyl]-N-(spiro[2.4]heptan-7-ylmethyl)pyridine-3-carboxamide], the “NAMPT Inhibition Code*” value was “A (*A = <33% inhibition)”.

As for `CC(=O)N(CC1CC1)c1ccc(-c2ccc(C(=O)NCC3CC(F)(F)C3)cn2)cc1Cl` [I-T2345, 6-[4-[acetyl(cyclopropylmethyl)amino]-3-chloro-phenyl]-N-[(3,3-difluorocyclobutyl)methyl]pyridine-3-carboxamide], the “NAMPT Inhibition Code*” value was “A (*A = <33% inhibition)”.

Regarding `CC(=O)N(CC1CC1)c1ccc(-c2ccc(C(=O)NCCC3CCCCC3)cn2)cc1Cl` [I-T2348, 6-[4-[acetyl(cyclopropylmethyl)amino]-3-chloro-phenyl]-N-(2-cyclohexylethyl)pyridine-3-carboxamide], the “NAMPT Inhibition Code*” value is recorded as “C (C = ≥66% inhibition)”.

As for `CC(=O)N(CC1CC1)c1ccc(-c2ccc(C(=O)NCc3cccs3)cn2)cc1Cl` [I-T2352, 6-[4-[acetyl(cyclopropylmethyl)amino]-3-chloro-phenyl]-N-(2-thienylmethyl)pyridine-3-carboxamide], the “NAMPT Inhibition Code*” value is reported as “B (B = >33 to <66% inhibition)”.

Take `CC(=O)N(CC1CC1)c1ccc(-c2ccc(C(=O)NCCc3ccsc3)cn2)cc1Cl` [I-T2353, 6-[4-[acetyl(cyclopropylmethyl)amino]-3-chloro-phenyl]-N-[2-(3-thienyl)ethyl]pyridine-3-carboxamide]: the “NAMPT Inhibition Code*” value is “C (C = ≥66% inhibition)”.

For the compound `CC(=O)N(CC1CC1)c1ccc(-c2ccc(C(=O)NCc3cscn3)cn2)cc1Cl` [I-T2354, 6-[4-[acetyl(cyclopropylmethyl)amino]-3-chloro-phenyl]-N-(thiazol-4-ylmethyl)pyridine-3-carboxamide], the “NAMPT Inhibition Code*” value is listed as “A (*A = <33% inhibition)”.

As to `CC(=O)N(CC1CC1)c1ccc(-c2ccc(C(=O)NCc3cncs3)cn2)cc1Cl` [I-T2355, 6-[4-[acetyl(cyclopropylmethyl)amino]-3-chloro-phenyl]-N-(thiazol-5-ylmethyl)pyridine-3-carboxamide], the “NAMPT Inhibition Code*” value was “A (*A = <33% inhibition)”.

Consider `CC(=O)N(CC1CC1)c1ccc(-c2ccc(C(=O)NCc3nccs3)cn2)cc1Cl` [I-T2356, 6-[4-[acetyl(cyclopropylmethyl)amino]-3-chloro-phenyl]-N-(thiazol-2-ylmethyl)pyridine-3-carboxamide], for which the “NAMPT Inhibition Code*” value is recorded as “A (*A = <33% inhibition)”.

On to `CC(=O)N(CC1CC1)c1ccc(-c2ccc(C(=O)NCCc3cncs3)cn2)cc1Cl` [I-T2360, 6-[4-[acetyl(cyclopropylmethyl)amino]-3-chloro-phenyl]-N-(2-thiazol-5-ylethyl)pyridine-3-carboxamide], for which the “NAMPT Inhibition Code*” value is recorded as “C (C = ≥66% inhibition)”.

Turning to `CC(=O)N(CC1CC1)c1ccc(-c2ccc(C(=O)NCc3ncco3)cn2)cc1Cl` [I-T2364, 6-[4-[acetyl(cyclopropylmethyl)amino]-3-chloro-phenyl]-N-(oxazol-2-ylmethyl)pyridine-3-carboxamide], the “NAMPT Inhibition Code*” value was “A (*A = <33% inhibition)”.

Take `CC(=O)N(CC1CC1)c1ccc(-c2ccc(C(=O)NCCCc3cnn(C)c3)cn2)cc1Cl` [I-T2366, 6-[4-[acetyl(cyclopropylmethyl)amino]-3-chloro-phenyl]-N-[3-(1-methylpyrazol-4-yl)propyl]pyridine-3-carboxamide]: the “NAMPT Inhibition Code*” value is reported as “A (*A = <33% inhibition)”.

`CC(=O)N(CC1CC1)c1ccc(-c2ccc(NC(=O)CCc3cccnc3F)cn2)cc1Cl` [I-T2369]: the “NAMPT Inhibition Code*” value is “C (C = ≥66% inhibition)”.

As to `CC(=O)N(CC1CC1)c1ccc(-c2ccc(C(=O)NCc3ccc(Br)nc3)cn2)cc1Cl` [I-T2370, 6-[4-[acetyl(cyclopropylmethyl)amino]-3-chloro-phenyl]-N-[(6-bromo-3-pyridyl)methyl]pyridine-3-carboxamide], the “NAMPT Inhibition Code*” value is given as “C (C = ≥66% inhibition)”.

Take `CC(=O)N(CC1CC1)c1ccc(-c2ccc(C(=O)NCc3ccc(C#N)nc3)cn2)cc1Cl` [I-T2371, 6-[4-[acetyl(cyclopropylmethyl)amino]-3-chloro-phenyl]-N-[(6-cyano-3-pyridyl)methyl]pyridine-3-carboxamide]: the “NAMPT Inhibition Code*” value was “C (C = ≥66% inhibition)”.

Take `CCOc1ccc(CNC(=O)c2ccc(-c3ccc(N(CC4CC4)C(C)=O)c(Cl)c3)nc2)cn1` [I-T2373, 6-[4-[acetyl(cyclopropylmethyl)amino]-3-chloro-phenyl]-N-[(6-ethoxy-3-pyridyl)methyl]pyridine-3-carboxamide]: the “NAMPT Inhibition Code*” value is “A (*A = <33% inhibition)”.

Take `CC(=O)N(CC1CC1)c1ccc(-c2ccc(NC(=O)CCc3ccc(F)nc3)cn2)cc1Cl` [I-T2384, N-[6-[4-[acetyl(cyclopropylmethyl)amino]-3-chloro-phenyl]-3-pyridyl]-3-(6-fluoro-3-pyridyl)propanamide]: the “NAMPT Inhibition Code*” value was “B (B = >33 to <66% inhibition)”.

Take `CC(=O)N(CC1CC1)c1ccc(-c2ccc(NC(=O)Cc3ccc(F)cc3)cn2)cc1Cl` [I-T2390, N-[6-[4-[acetyl(cyclopropylmethyl)amino]-3-chloro-phenyl]-3-pyridyl]-2-(4-fluorophenyl)acetamide]: the “NAMPT Inhibition Code*” value is “B (B = >33 to <66% inhibition)”.

`CC(=O)N(CC1CC1)c1ccc(-c2ccc(NC(=O)Cc3ccc(Cl)nc3)cn2)cc1Cl` [I-T2391, N-[6-[4-[acetyl(cyclopropylmethyl)amino]-3-chloro-phenyl]-3-pyridyl]-2-(6-chloro-3-pyridyl)acetamide]: the “NAMPT Inhibition Code*” value was “C (C = ≥66% inhibition)”.

As to `CC(=O)N(CC1CC1)c1ccc(-c2ccc(NC(=O)Cc3cccnc3Cl)cn2)cc1Cl` [I-T2392, N-[6-[4-[acetyl(cyclopropylmethyl)amino]-3-chloro-phenyl]-3-pyridyl]-2-(2-chloro-3-pyridyl)acetamide], the “NAMPT Inhibition Code*” value is recorded as “A (*A = <33% inhibition)”.

As to `CC(=O)N(CC1CC1)c1ccc(-c2ccc(NC(=O)Cc3ccc(Cl)cc3)cn2)cc1Cl` [I-T2393, N-[6-[4-[acetyl(cyclopropylmethyl)amino]-3-chloro-phenyl]-3-pyridyl]-2-(4-chlorophenyl)acetamide], the “NAMPT Inhibition Code*” value is “C (C = ≥66% inhibition)”.

With `CC(=O)N(CC1CC1)c1ccc(-c2ccc(NC(=O)CC3CCCCC3)cn2)cc1Cl` [I-T2394, N-[6-[4-[acetyl(cyclopropylmethyl)amino]-3-chloro-phenyl]-3-pyridyl]-2-cyclohexyl-acetamide], the “NAMPT Inhibition Code*” value is “A (*A = <33% inhibition)”.

On to `CC(=O)N(CC1CC1)c1ccc(-c2ccc(C(=O)NCc3ccc(C(F)F)nc3)cn2)cc1Cl` [I-T2397, 6-[4-[acetyl(cyclopropylmethyl)amino]-3-chloro-phenyl]-N-[[6-(difluoromethyl)-3-pyridyl]methyl]pyridine-3-carboxamide], for which the “NAMPT Inhibition Code*” value was “C (C = ≥66% inhibition)”.
